Square brackets hold non-standard residues; d marks the D form. Peptide text beside a SMILES is read from it. Sar = CNCC(=O)O

We go through eight molecules from patent US5849525A, “Compositions corresponding to a proton-coupled peptide transporter and methods of making and using same” (Brigham and Women's Hospital, Inc., priority 1995, dated 1998).

Data set [1] concerns the target T1, proton-coupled peptide transporter (Oryctolagus cuniculus, UniProt P36836).
T1 construct: Xenopus laevis oocytes were injected with cRNA coding the proton-coupled peptide transporter; expressed in transfected cells; host or cells: Xenopus laevis oocytes injected with cRNA transcribed in vitro from the cloned cDNA
T1 sequence (P36836 1-707): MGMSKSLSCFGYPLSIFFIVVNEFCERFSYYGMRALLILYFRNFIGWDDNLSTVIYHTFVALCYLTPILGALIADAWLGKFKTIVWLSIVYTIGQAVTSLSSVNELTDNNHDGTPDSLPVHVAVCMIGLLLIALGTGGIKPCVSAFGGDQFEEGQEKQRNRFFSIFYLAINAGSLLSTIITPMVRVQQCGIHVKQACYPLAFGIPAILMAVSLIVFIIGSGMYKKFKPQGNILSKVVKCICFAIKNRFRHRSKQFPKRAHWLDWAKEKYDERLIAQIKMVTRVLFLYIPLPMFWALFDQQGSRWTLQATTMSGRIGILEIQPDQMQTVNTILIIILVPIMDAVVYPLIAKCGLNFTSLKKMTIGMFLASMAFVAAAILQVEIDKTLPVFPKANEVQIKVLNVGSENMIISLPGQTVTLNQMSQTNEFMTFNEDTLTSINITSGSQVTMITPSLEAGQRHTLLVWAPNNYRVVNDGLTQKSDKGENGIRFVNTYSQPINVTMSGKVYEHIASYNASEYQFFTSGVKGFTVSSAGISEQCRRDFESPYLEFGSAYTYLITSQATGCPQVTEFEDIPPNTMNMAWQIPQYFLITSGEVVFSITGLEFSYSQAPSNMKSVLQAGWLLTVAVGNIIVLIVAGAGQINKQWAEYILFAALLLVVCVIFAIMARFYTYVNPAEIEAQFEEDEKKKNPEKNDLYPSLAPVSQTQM
In words: Intracellular pH (pH-sensitive microelectrode) and membrane potential of cRNA-transformed oocytes. Particulars: pHo 5.5 solution, Gly-Sar 10 mM; for membrane potential Vm after application: depolarized from -20 mV. It is filed as cell-based, rabbit. The text has this:
The example describes hydrogen ion cotransport by Xenopus laevis oocytes transformed with cRNA coding a proton-coupled peptide transporter. Transformed Xenopus laevis oocytes of Example 5 and 6 were implanted with microelectrodes and membrane potential set with electrodes.
Internal pH measurements were taken with microelectrodes, silanized borosilicate pipettes with tips filled with a hydrogen ionophore (I-cocktail B, Fluka). […] After washing with uptake solution without glycyl-sarcosine, each oocyte was clamped at this membrane potential. […] The equation used to calculate the electrochemical potential difference for H^+ (ΔμH) was ΔμH +=RT 1n ([H^+ ] i/[H^+ ]o)+zF (Vi -Vo) and that for Gly-Sar (ΔμGly-Sar) was ΔμGly-Sar =RT 1n ([Gly-Sar] i/ [Gly-Sar]o), where; R is the gas constant, T the absolute temperature (295° K.), F is Faraday's constant, pHi and pHo the intra- and extracellular pH, Gly-Sari and Gly-Saro, the intra-and extracelluar Gly-Sar concentrations, and z the valency.
Oocytes were initially kept in pH 7.4 medium (96 mM NaCl, 1 mM KCl, 1.8 mM CaCl2, 1.0 mM MgCl2 and 5 HEPES). […] In water-injected oocytes, lowering pHo from 7.4 to 5.5 caused a continuous pHi decrease which was not dependent on the expression of the proton-coupled peptide transporter.

In data set [2] the target is T1, proton-coupled peptide transporter. In words: Two-electrode voltage clamp of Xenopus laevis oocytes injected with transporter cRNA: substrate-evoked inward currents and Km. Format: cell-based, rabbit. The following applies: uptake solution pH 5.5. The text has this:
These oocytes were subjected to two electrode voltages clamp analysis (Gene Clamp 500, Axon Instruments, California) in the manner described in Kanaisy & Hediger, M. A. Nature 360, 467-71 (1992).
FIG. 9 depicts electrophysiological measurements of transformed cocytes as a percent of glycyl-sarcosine evoked current. Data representing glycyl-sarcosine are depicted as a solid black bar. Data representing peptide are depicted with dotted bars. Data representing antibiotics are depicted with hatched bars.
By altering peptide concentrations, current amplitudes for different compositions, Km values were determined.

The target is the same in data set [3]. As to the kind of experiment: Hybrid depletion of rabbit small intestine poly(A)+ RNA with antisense/sense DNA oligonucleotide before oocyte injection, glycyl-sarcosine uptake. It is filed as cell-based. Particulars: oocytes receiving rabbit poly(A)+ RNA without sense or antisense nucleic acid. From the text:
This example describes hybrid depletion of rabbit small intestine poly(A)^+ RNA before injection into Xenopus laevis oocytes. A first admixture was formed of rabbit small intestine derived poly(A)^+ RNA and an antisense DNA oligonucleotide corresponding to the 5'-end coding region of cDNA corresponding to the proton-coupled peptide transporter.
A second admixture was formed of rabbit small intestine derived poly(A)^+ RNA and a sense DNA oligonucleotide corresponding to the same region as the antisense DNA. Both DNAs were twenty-three nucleotides in length. Rabbit jejunum poly(A)^+ RNA (0.5 μg/μl) was incubated with the oligonucleotide (0.25 μg/μl in the presence of 50 mM NaCl at 42° C. for one hour and then injected into oocytes. The uptake of the peptide, glycyl-sarcosine, was measured three days after injection.

For data set [4] the target is unchanged. As to the kind of experiment: C14-glycyl-sarcosine uptake in cRNA-transformed oocytes in sodium-free or chloride-free solutions and at different pH. Format: cell-based, rabbit. From the text: This example describes the stoichiometry and voltage dependence of the proton-coupled peptide transporter. Four days after transformation with cRNA coding the proton-coupled peptide transporter, Xenopus laevis oocytes were examined in the presence of 1 mMC^14 -glycyl-sarcosine in standard uptake solution (pH 5.5), modified to be sodium or chloride ion free.
In sodium-free solutions, the sodium chloride was replaced with choline-chloride. In chloride free solutions, the sodium chloride was replaced with sodium nitrate.
Glycyl-sarcosine uptake was determined from the slope of the time-dependence of 1 to 5 minutes uptake. The results are depicted in bar graph form in FIG. 10. […] That is, the presence of or absence of sodium ion and the presence or absence of chloridion had little or no effect on glycyl-sarcosine uptake. In each instance the uptake was approximately 1000 pmol glycyl-sarcosine.
In this example Xenopus laevis oocytes transformed with cRNA coding the proton-coupled peptide transporter of the preceding example were evaluated for C^14 -glycyl-sarcosine uptake in the standard uptake solutions modified to different pH. Glycyl-sarcosine uptake was determined from the slope of time-dependence of 1 to 5 minute uptakes.

Data set [5] deals with Xenopus laevis oocytes. As to the kind of experiment: Thin-layer chromatography of solubilized oocytes incubated in 14C-Gly-Sar (hydrolysis). It is filed as in vitro ADME. The following applies: 1 mM 14C-Gly-Sar, pH 5.5, seven hours.
For data set [6], the target named is T1, proton-coupled peptide transporter. In words: Uptake of C14-glycyl-sarcosine by Xenopus laevis oocytes injected with rabbit jejunum poly(A)+ RNA or transporter cRNA. Format: cell-based. Particulars: 100 μM C14-Gly-Sar, 1 hour, pH 5.5. The method, then: This example describes the uptake of radiolabeled glycyl-sarcosine (C^14 -Gly-Sar) by Xenopus laevis oocytes injected with poly(A)^+ RNA from rabbit jejunum or with cRNA synthesized by in vitro transcription of proton-coupled peptide transporter cDNA.
All uptakes in this and the following figures were performed with 6-8 oocytes, 3 days after injection. RNA-injected oocytes were injected with 25 ng cRNA in 50 nl.
Oocytes injected with cRNA coding a proton-coupled peptide transporter were incubated for 1 hour in uptake solution (100 mM NaCl, 2 mM KCl 1 mM MgCl2, 1 mM CaCl2, 3 mM HEPES, 3 mM MES, 3 mM Tris, pH 5.5) in the presence of 100 μM C^14 -glycol-sarcosine (specific radioactivity, 112 mCi/mmol, custom synthesized by the Radiochemical Center, Amersham, U.K.). The oocytes were rinsed with ice-cold washing solution (uptake solution with pH adjusted to 7.5 with Tris base) and the radioactivity of each oocyte was measured by scintillation counting.

Data set [7] has the same target. As to the kind of experiment: Stoichiometry (uptake versus net charge flux) and cumulative C14-glycyl-sarcosine uptake in cRNA-transformed oocytes. Format: cell-based, rabbit. The method, then: Internal pH measurements were taken with microelectrodes, silanized borosilicate pipettes with tips filled with a hydrogen ionophore (I-cocktail B, Fluka). The membrane potential was measured in uptake solution (pH 5.5) containing 1 mM glycyl-sarcosine. After washing with uptake solution without glycyl-sarcosine, each oocyte was clamped at this membrane potential. […] The equation used to calculate the electrochemical potential difference for H^+ (ΔμH) was ΔμH +=RT 1n ([H^+ ] i/[H^+ ]o)+zF (Vi -Vo) and that for Gly-Sar (ΔμGly-Sar) was ΔμGly-Sar =RT 1n ([Gly-Sar] i/ [Gly-Sar]o), where; R is the gas constant, T the absolute temperature (295° K.), F is Faraday's constant, pHi and pHo the intra- and extracellular pH, Gly-Sari and Gly-Saro, the intra-and extracelluar Gly-Sar concentrations, and z the valency.
This 1:1 coupling ratio is consistent with analysis of the coupling ratio based on thermodynamic considerations. Cumulative uptake of C^14 -glycyl-sarcosine was measured as depicted in FIG. 14.
Data represent the average of the uptakes from 20-24 oocytes after subtraction of the uptakes of water-injected oocytes. After a ten hour incubation in 1 mM non-radiolabeled 1 mM glycyl-sarcosine, the ^14 C-glycyl-sarcosine influx was 1754±403 (n=7) pmol/oocyte.

The target of data set [8] is proton-coupled peptide transporter derived from rabbit (rabbit).
For data set [9] the target is unchanged. The source holds these as a separate data set.
Substrate in data set [10]: CC(C)C[C@H](NC(=O)CN)C(=O)O
In words: cells, lysate or membranes. Format: cell-based, rabbit. Particulars: other: current amplitudes at altered substrate concentrations, pH 5.5, cRNA-injected oocytes.

Substrate in data set [11]: CN(CC(=O)O)C(=O)CN
In words: cells, lysate or membranes. Format: cell-based, rabbit. The following applies: other: current amplitudes at altered substrate concentrations, pH 5.5, cRNA-injected oocytes.

Substrate in data set [12]: C[C@H](N)C(=O)N[C@@H](CC(=O)O)C(=O)O
As to the kind of experiment: cells, lysate or membranes. The following applies: other: current amplitudes at altered substrate concentrations, pH 5.5, cRNA-injected oocytes. It is filed as cell-based, rabbit.

Substrate in data set [13]: NCC(=O)NCC(=O)NCC(=O)O
As to the kind of experiment: cells, lysate or membranes. The following applies: other: current amplitudes at altered substrate concentrations, pH 5.5, cRNA-injected oocytes.

Substrate in data set [14]: CC1(C)S[C@@H]2[C@H](NC(=O)C3(N)CCCCC3)C(=O)N2[C@H]1C(=O)O
As to the kind of experiment: cells, lysate or membranes. Particulars: other: current amplitudes at altered substrate concentrations, pH 5.5, cRNA-injected oocytes.

As for `NCC(=O)O` [glycine], in data set [1], the “effect on intracellular pH (pHi)” value was “no detectable response” and the “membrane potential Vm after application” value is given as “no detectable response”.
As to `CC(C)C[C@H](NC(=O)CN)C(=O)O` [Glycyl-leucine], the substrate-evoked inward current entry in [2] is “inward current”.
Regarding `CN(CC(=O)O)C(=O)CN` [Glycyl-sarcosine, glycyl-sarcosine] (H-Gly-[Sar]-OH), the substrate-evoked inward current entry in [2] is “strongest current”. Further, the uptake of glycyl-sarcosine result in [3] is “approximately 8 pmol”; in data set [6] (oocytes receiving rabbit jejunum poly(A)+ RNA), “less than 20 pmol”; in data set [6] (oocytes receiving transporter cRNA) it was around 200 pmol. In [4] (1 mM C14-glycyl-sarcosine, pH 5.5, presence or absence of sodium or chloride ion), the glycyl-sarcosine uptake result is listed as “approximately 1000 pmol”. In data set [4] (standard uptake solutions modified to different pH), the “pH of maximum glycyl-sarcosine uptake” value is 5.5. For the same molecule, the “fraction of intracellular 14C-label that is hydrolyzed glycyl-sarcosine” value in data set [5] is recorded as “no more than one third”. Moreover, in data set [1], the “membrane potential Vm after application” value is on record as “+15 mV”. For the same molecule, the “effect on intracellular pH (pHi)” value was “large intracellular acidification” in data set [1] (listed as Gly-Sar) and “decrease in pH” in [1] (listed as glycyl-sarcosine). The “time to thermodynamic equilibrium of cumulative uptake” value in [7] (C14-glycyl-sarcosine, cRNA-transformed oocytes) is given as “approximately eight”. In [7] (after ten hour incubation in 1 mM non-radiolabeled glycyl-sarcosine, n=7), the 14C-glycyl-sarcosine influx worked out at 1754±403 pmol/oocyte.
For the molecule glycyl-sarcosine (peptide), the Km from current amplitudes in data set [8] came out at 1900 µM. In data set [9], this molecule had an uptake of C14-glycyl-sarcosine by oocytes of 200 pmol.
Regarding `CC1=C(C(=O)O)N2C(=O)[C@@H](NC(=O)[C@H](N)C3=CCC=CC3)[C@H]2SC1` [cephradine], the substrate-evoked inward current result in data set [2] is given as “Significant currents”.
Same read-out and setting: under `CC1=C(C(=O)O)N2C(=O)[C@@H](NC(=O)[C@H](N)c3ccc(O)cc3)[C@H]2SC1` [cefadroxil] stands “Significant currents”; under `CC1(C)S[C@@H]2[C@H](NC(=O)C3(N)CCCCC3)C(=O)N2[C@H]1C(=O)O` [Cyclacillin], “inward current”.

B1: proton-coupled peptide transporter (Oryctolagus cuniculus) (protein)
chain: MGMSKSLSCFGYPLSIFFIVVNEFCERFSYYGMRALLILYFRNFIGWDDNLSTVIYHTFVALCYLTPILGALIADAWLGKFKTIVWLSIVYTIGQAVTSLSSVNELTDNNHDGTPDSLPVHVAVCMIGLLLIALGTGGIKPCVSAFGGDQFEEGQEKQRNRFFSIFYLAINAGSLLSTIITPMVRVQQCGIHVKQACYPLAFGIPAILMAVSLIVFIIGSGMYKKFKPQGNILSKVVKCICFAIKNRFRHRSKQFPKRAHWLDWAKEKYDERLIAQIKMVTRVLFLYIPLPMFWALFDQQGSRWTLQATTMSGRIGILEIQPDQMQTVNTILIIILVPIMDAVVYPLIAKCGLNFTSLKKMTIGMFLASMAFVAAAILQVEIDKTLPVFPKANEVQIKVLNVGSENMIISLPGQTVTLNQMSQTNEFMTFNEDTLTSINITSGSQVTMITPSLEAGQRHTLLVWAPNNYRVVNDGLTQKSDKGENGIRFVNTYSQPINVTMSGKVYEHIASYNASEYQFFTSGVKGFTVSSAGISEQCRRDFESPYLEFGSAYTYLITSQATGCPQVTEFEDIPPNTMNMAWQIPQYFLITSGEVVFSITGLEFSYSQAPSNMKSVLQAGWLLTVAVGNIIVLIVAGAGQINKQWAEYILFAALLLVVCVIFAIMARFYTYVNPAEIEAQFEEDEKKKNPEKNDLYPSLAPVSQTQM
notes: Xenopus laevis oocytes were injected with cRNA coding the proton-coupled peptide transporter; expressed in transfected cells; host or cells: Xenopus laevis oocytes injected with cRNA transcribed in vitro from the cloned cDNA
As to B1, the Km was 81 µM in data set [10]; 1900 µM in [11]; 143 µM in data set [12]; 5100 µM in data set [13]; 137 µM in data set [14].
